Assay results published in patent US10086039B2, “Lamin A, an activator of longevity/anti-aging SIRT1 protein” (THE UNIVERSITY OF HONG KONG, priority 2012, dated 2018).

Target: T1, SIRT1 binding to prelamin A (Mus musculus, UniProt Q923E4)
T1 construct: endogenous in cells; host or cells: mouse bone marrow stromal cells (Zmpste24-/-)
T1 sequence (Q923E4 2-737 limits assumed): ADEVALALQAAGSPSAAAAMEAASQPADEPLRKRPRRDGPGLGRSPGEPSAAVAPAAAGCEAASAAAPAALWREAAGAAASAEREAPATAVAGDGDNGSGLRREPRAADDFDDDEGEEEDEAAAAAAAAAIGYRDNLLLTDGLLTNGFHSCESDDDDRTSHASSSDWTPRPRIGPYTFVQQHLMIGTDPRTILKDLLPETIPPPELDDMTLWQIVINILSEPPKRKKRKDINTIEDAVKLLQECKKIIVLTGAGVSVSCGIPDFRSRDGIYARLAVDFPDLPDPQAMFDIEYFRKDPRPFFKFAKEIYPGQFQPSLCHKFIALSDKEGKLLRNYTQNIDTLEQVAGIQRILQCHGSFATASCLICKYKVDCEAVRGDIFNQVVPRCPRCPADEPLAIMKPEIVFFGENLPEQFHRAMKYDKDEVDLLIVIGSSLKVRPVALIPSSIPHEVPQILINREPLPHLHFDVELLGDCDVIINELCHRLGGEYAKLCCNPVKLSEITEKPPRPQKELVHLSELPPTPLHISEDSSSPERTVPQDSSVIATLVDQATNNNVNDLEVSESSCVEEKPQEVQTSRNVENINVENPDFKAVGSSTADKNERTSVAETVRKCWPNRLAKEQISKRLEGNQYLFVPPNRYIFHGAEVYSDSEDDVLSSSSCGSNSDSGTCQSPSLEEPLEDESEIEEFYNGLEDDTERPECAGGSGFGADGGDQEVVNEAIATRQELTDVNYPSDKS
T1 sequence (P48678 1-662 partner limits assumed): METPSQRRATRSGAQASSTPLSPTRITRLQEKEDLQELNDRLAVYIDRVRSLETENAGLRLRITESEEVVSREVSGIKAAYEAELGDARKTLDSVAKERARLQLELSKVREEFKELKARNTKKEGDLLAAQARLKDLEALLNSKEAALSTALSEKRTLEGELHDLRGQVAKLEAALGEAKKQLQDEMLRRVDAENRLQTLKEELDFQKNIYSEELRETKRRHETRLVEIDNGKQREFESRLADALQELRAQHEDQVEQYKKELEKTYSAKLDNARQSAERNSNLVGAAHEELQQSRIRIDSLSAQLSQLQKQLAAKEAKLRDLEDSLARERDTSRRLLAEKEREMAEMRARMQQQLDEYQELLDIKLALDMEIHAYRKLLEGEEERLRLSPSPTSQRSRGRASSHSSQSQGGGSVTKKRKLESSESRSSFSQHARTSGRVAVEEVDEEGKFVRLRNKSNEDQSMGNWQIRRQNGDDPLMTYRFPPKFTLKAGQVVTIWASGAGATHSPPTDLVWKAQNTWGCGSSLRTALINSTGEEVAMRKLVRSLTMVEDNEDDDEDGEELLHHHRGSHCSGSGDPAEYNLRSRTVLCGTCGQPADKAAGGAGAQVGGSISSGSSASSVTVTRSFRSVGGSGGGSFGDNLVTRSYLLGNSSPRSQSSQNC
Test: Prelamin A pull-down by anti-SIRT1 immunoprecipitates in BMSCs
Type: cell-based
Conditions: resveratrol 2 μM
Procedure: (FIG. 4A) Resveratrol (10 μM) increased colony-forming capacity of Zmpste24^−/− BMSCs. Colony-forming assay was performed on freshly isolated bone marrow cells in 10 cm dishes in the presence and absence of resveratrol. (FIG. 4B) Colony number counting. […] Data represent mean±SEM, n=4. *P<0.05, RSV Vs Vehicle. (FIG. 4C) Left, level of prelamin A pull down by anti SIRT1 immunoprecipitates in BMSCs treated or untreated with resveratrol (2 μM) was determined by Immunoblotting; right, level of acetylated Foxo3a in resveratrol was assessed by Immunoblotting. (FIG. 4D) Levels of catalase and Gadd45α in SIRT1 or scramble siRNA treated Zmpste24^−/− BMSCs in the presence or absence of resveratrol (10 μM) determined by Western blotting. (FIG. 4E) Colony-forming capacity of Zmpste24^−/− BMSCs by SIRT1 or scramble knocking down in the presence or absence of resveratrol. […] Colony forming assay was done on freshly isolated cells in 6-well plates. (FIG. 4F) Quantification of (FIG. 4E). […] (FIG. 4gG Levels of H3K9ac and IR-induced-H2AX with or without ectopic SIRT1 in wild-type and Zmpste24 null BMSCs were assessed by Western blotting. (FIG. 4H) Ectopic SIRT1 increased the colony-forming capacity of Zmpste24^−/− and wild-type BMSCs. Colony-forming assay was performed on freshly isolated cells in 6 cm dishes. (FIG. 4I) Quantification of (FIG. 4H). Data represent mean±SEM, n=5. *P<0.05, SIRT1 Vs Mock. […]

Oc1ccc(C=Cc2cc(O)cc(O)c2)cc1 [resveratrol]
binding of SIRT1 to prelamin A: increased the binding of SIRT1 to prelamin A
